Tests used:
MMP-8 full-length = molecular target: T1, MMP-8 full-length (Homo sapiens, UniProt P22894); experiment: Thiopeptolide substrate hydrolysis inhibition assay, MMP-8 full-length; assay type: biochemical; settings: full-length enzyme; read-out: MMP-8FL IC50
T1 construct: MMP-7 full-length, MMP-8 full-length, MMP-9 full-length
Source text: The assay methods of Biological Examples 1-4 measure the amount by which a test compound reduces the hydrolysis of a thiopeptolide substrate catalyzed by a matrix metalloproteinase enzyme or catalytic domain thereof. It has been shown previously by Ye Qi-Zhuang, Hupe D., and Johnson L. (Current Medicinal Chemistry, 1996;3:407-418) that inhibitor activity against a catalytic domain of an MMP is predictive of the inhibitor activity against the respective full-length MMP enzyme. The methods described below for the inhibition of MMP-13 may also be adapted and used to determine the ability of the compounds of Formula I to inhibit other matrix metalloproteases such as MMP-1, MMP-2, MMP-3, MMP-7, MMP-8, MMP-9, MMP-12, MMP-14, MMP-17, and the like.
Thiopeptolide substrates show virtually no decomposition or hydrolysis at or below neutral pH in the absence of a matrix metalloproteinase enzyme. A typical thiopeptolide substrate commonly utilized for assays is Ac-Pro-Leu-Gly-thioester-Leu-Leu-Gly-OEt. A 100 μL assay mixture will contain 50 mM of N-2-hydroxyethylpiperazine-N′-2-ethanesulfonic acid buffer (“HEPES,” pH 7.0), 10 mM CaCl2, 100 μM thiopeptolide substrate, and 1 mM 5,5′-dithio-bis-(2-nitro-benzoic acid) (DTNB). […] The change in absorbance at 405 nm is monitored on a Thermo Max microplate reader (molecular Devices, Menlo Park, Calif.) at room temperature (22° C.). The calculation of the amount of hydrolysis of the thiopeptolide substrate is based on E412=13600 M^−1 cm^−1 for the DTNB-derived product 3-carboxy-4-nitrothiophenoxide. Assays are carried out with and without matrix metalloproteinase inhibitor compounds, and the amount of hydrolysis is compared for a determination of inhibitory activity of the test compounds.
Test compounds were evaluated at various concentrations in order to determine their respective IC50 values, the micromolar concentration of compound required to cause a 50% inhibition of catalytic activity of the respective enzyme.
Some representative compounds of Formula I have been evaluated for their ability to inhibit MMP-13, MMP-1FL, MMP-3CD, MMP-7FL, MMP-8FL, MMP-9FL, MMP-12CD, MMP-14CD, and/or MMP-17CD, wherein FL means full-length enzyme and CD means a catalytic domain of the full-length enzyme. Test compounds can be evaluated at various concentrations in order to determine their respective IC50 values, the micromolar concentration of compound required to cause a 50% inhibition of the hydrolytic activity of the respective enzyme.
Certain compounds of Formula I have also been assayed with MMP-1 full-length, MMP-3 catalytic domain, MMP-7 full-length, MMP-8 full-length, MMP-9 full-length, MMP-12 catalytic domain, MMP-14 catalytic domain, and MMP-17 catalytic domain. […] In Biological Table 2, the compound example numbers for the Compound Examples are indicated in the column labelled “Ex. No.”

male Wistar rats = experiment: Monosodium iodoacetate-induced osteoarthritis in rat model of cartilage damage (MIA Rat); assay type: in vivo; settings: for inhibition of cartilage erosion (surface area of erosion) versus vehicle control / rats in the treatment group that exhibited no cartilage erosion: 4 weeks
Source text: One end result of the induction of osteoarthritis in this model, as determined by histologic analysis, is the development of an osteoarthritic condition within the affected joint, as characterized by the loss of Toluidine blue staining and formation of osteophytes. Associated with the histologic changes is a concentration-dependent degradation of joint cartilage, as evidenced by affects on hind-paw weight distribution of the limb containing the affected joint, the presence of increased amounts of proteoglycan or hydroxyproline in the joint upon biochemical analysis, or histopathological analysis of the osteoarthritic lesions.
In the MIA Rat model on Day 0, the hind-paw weight differentials between the right arthritic joint and the left healthy joint of male Wistar rats (150 g) were determined with an incapacitance tester, model 2KG (Linton Instrumentation, Norfolk, United Kingdom). […] Then the rats were anesthetized with isofluorine, and the right, hind leg knee joint was injected with 1.0 mg of mono-iodoacetate (“MIA”) through the infrapatellar ligament. […] The rats were further administered either the compound of Compound Example 1 or vehicle (in the instant case, water) daily for 14 days or 28 days. The compound of Compound Example 1 was administered at doses of 1, 3, 10, and 30 milligrams per kilogram of rat per day, but invention compounds may be administered at other doses such as, for example, 60 mg/kg/day, 90-mg/kg/day, or 100 mg/kg/day according to the requirements of the compound being studied. It is well within the level of ordinary skill in the pharmaceutical arts to determine a proper dosage of an invention compound in this model.
Generally, an invention compound may be administered in this model by oral administration, but optionally intravenous administration via an osmotic pump could be employed. After 7 and 14 days for a two-week study, or 7, 14, and 28 days for a four-week study, the hind-paw weight distribution may be determined. […] This change in weight distribution was proportional to the degree of joint cartilage damage. Percent inhibition of a change in hind paw joint function was calculated as the percent change in hind-paw weight distribution for treated animals versus control animals. For example, for a two week study,
In the present study the compound of Compound Example 1 was administered perorally, and hind-paw weight differentials were determined at both 2 and 4 weeks. Further, in order to detect the presence of erosion of cartilage in the joints, the animals in the above study were sacrificed at 4 weeks, and the presence or absence of cartilage erosion was determined. The proportion of subjects without hind limb erosions was determined via an Exact Sequential Cochran-Armitage Trend test (SAS® Institute, 1999). The Cochran-Armitage Trend test was employed to determine whether the proportion of positive or “Yes” responders increases or decreases with increasing levels of treatment. For this particular study, it was expected that the number of animals without joint erosions increased with increasing dose.

MMP-13 catalytic domain = MMP-13 catalytic domain (Homo sapiens, UniProt P45452); experiment: Thiopeptolide substrate hydrolysis inhibition assay, MMP-13 catalytic domain; assay type: biochemical; settings: MMP-13 catalytic domain; read-out: MMP-13CD IC50
Source text: The methods described below for the inhibition of MMP-13 may also be adapted and used to determine the ability of the compounds of Formula I to inhibit other matrix metalloproteases such as MMP-1, MMP-2, MMP-3, MMP-7, MMP-8, MMP-9, MMP-12, MMP-14, MMP-17, and the like.
Thiopeptolide substrates show virtually no decomposition or hydrolysis at or below neutral pH in the absence of a matrix metalloproteinase enzyme. A typical thiopeptolide substrate commonly utilized for assays is Ac-Pro-Leu-Gly-thioester-Leu-Leu-Gly-OEt. A 100 μL assay mixture will contain 50 mM of N-2-hydroxyethylpiperazine-N′-2-ethanesulfonic acid buffer (“HEPES,” pH 7.0), 10 mM CaCl2, 100 μM thiopeptolide substrate, and 1 mM 5,5′-dithio-bis-(2-nitro-benzoic acid) (DTNB). […] Assays are carried out with and without matrix metalloproteinase inhibitor compounds, and the amount of hydrolysis is compared for a determination of inhibitory activity of the test compounds.

T1 sequence (P22894 101-467): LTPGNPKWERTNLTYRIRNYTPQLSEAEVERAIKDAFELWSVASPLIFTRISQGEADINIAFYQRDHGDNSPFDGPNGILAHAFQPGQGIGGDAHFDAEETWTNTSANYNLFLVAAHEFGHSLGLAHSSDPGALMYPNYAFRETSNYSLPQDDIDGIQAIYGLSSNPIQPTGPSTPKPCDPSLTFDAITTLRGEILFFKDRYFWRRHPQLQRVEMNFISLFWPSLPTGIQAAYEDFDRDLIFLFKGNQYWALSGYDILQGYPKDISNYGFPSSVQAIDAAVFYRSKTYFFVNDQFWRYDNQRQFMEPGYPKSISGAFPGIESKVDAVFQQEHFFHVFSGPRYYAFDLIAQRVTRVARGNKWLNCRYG

IC50 (MMP-8 full-length): > 100000 nM | IC50 (MMP-13 catalytic domain): 7.7 nM
SMILES: COc1ccc(CNC(=O)c2cc3c(=O)n(Cc4ccc(C(=O)O)cc4)cnc3cn2)cc1 [Compound Example 1, 4-[6-(4-methoxy-benzylcarbamoyl)-4-oxo-4H-pyrido[3,4-d]pyrimidin-3-ylmethyl]-benzoic acid]
cartilage erosion versus vehicle control (in words) (male Wistar rats; 2 weeks, 1, 3, 10 and 30 mg/kg orally BID): inhibited in a dose dependent manner cartilage erosion | inhibition of cartilage erosion (surface area of erosion) versus vehicle control (male Wistar rats; 1 mg/kg orally BID): 40.5% | rats in the treatment group that exhibited no cartilage erosion (male Wistar rats; 1 mg/kg orally BID): 5/12 | inhibition of cartilage erosion (surface area of erosion) versus vehicle control (male Wistar rats; 3 mg/kg orally BID): 55.6% | rats in the treatment group that exhibited no cartilage erosion (male Wistar rats; 3 mg/kg orally BID, p<0.05 versus vehicle): 7/12 | inhibition of cartilage erosion (surface area of erosion) versus vehicle control (male Wistar rats; 10 mg/kg orally BID): 61.6% | rats in the treatment group that exhibited no cartilage erosion (male Wistar rats; 10 mg/kg orally BID, p<0.05 versus vehicle): 7/12 | inhibition of cartilage erosion (surface area of erosion) versus vehicle control (male Wistar rats; 30 mg/kg orally BID): 32.9% | rats in the treatment group that exhibited no cartilage erosion (male Wistar rats; 30 mg/kg orally BID): 4/12

From patent US20050085447A1, “Pyrido[3,4-d]pyrimidine derivatives as matrix metalloproteinase-13 inhibitors” (Warner-Lambert Company LLC, priority 2003, published 2005)
